Experimental data taken from patent US20200239530A1, “COMPOUNDS AND METHODS OF MODULATING PROTEIN DEGRADATION” (Vividion Therapeutics, Inc., priority 2017, published 2020).
Like-named read-outs stand apart in the source and are kept apart here. One block for each compound: values may come before it.

Assays:
Test in all cases: Competitive cysteine profiling, probe competition (Table 2B)
Type in all cases: binding
Q92624 = target: T1, Q92624 (Homo sapiens, UniProt Q92624)
T1 construct: Cells were resuspended in cold PBS on ice and sonicated with a probe sonicator to achieve lysis; endogenous in cells
T1 sequence (Q92624 1-585): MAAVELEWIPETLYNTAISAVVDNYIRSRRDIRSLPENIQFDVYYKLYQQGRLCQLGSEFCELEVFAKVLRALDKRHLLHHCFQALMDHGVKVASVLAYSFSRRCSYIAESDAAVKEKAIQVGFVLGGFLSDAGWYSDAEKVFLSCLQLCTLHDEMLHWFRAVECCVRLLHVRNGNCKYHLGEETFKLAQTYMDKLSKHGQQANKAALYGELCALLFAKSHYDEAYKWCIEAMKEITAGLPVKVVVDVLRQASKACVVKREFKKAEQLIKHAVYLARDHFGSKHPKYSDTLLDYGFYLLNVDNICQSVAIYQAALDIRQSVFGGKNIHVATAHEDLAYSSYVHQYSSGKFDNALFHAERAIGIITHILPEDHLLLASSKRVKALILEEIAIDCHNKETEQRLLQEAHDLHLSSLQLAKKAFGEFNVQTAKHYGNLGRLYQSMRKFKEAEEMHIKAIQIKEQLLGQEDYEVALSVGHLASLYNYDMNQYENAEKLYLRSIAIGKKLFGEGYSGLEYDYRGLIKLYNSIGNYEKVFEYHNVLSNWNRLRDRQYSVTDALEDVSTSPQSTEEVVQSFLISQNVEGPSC
Description: (§1) The following 96-well sample prep protocol was used for sample preparation.

Q9UJX5 = target: T2, Q9UJX5 (Homo sapiens, UniProt Q9UJX5)
T2 construct: Cells were resuspended in cold PBS on ice and sonicated with a probe sonicator to achieve lysis; endogenous in cells
Description: as §1

Q9UM13 = target: T3, Q9UM13 (Homo sapiens, UniProt Q9UM13)
T3 construct: Cells were resuspended in cold PBS on ice and sonicated with a probe sonicator to achieve lysis; endogenous in cells
Description: as §1

Q9NYG5 = target: T4, Q9NYG5 (Homo sapiens, UniProt Q9NYG5)
T4 construct: Cells were resuspended in cold PBS on ice and sonicated with a probe sonicator to achieve lysis; endogenous in cells
Description: as §1

Q9H765 = target: T5, Q9H765 (Homo sapiens, UniProt Q9H765)
T5 construct: 200 μL of lysate containing 5 mg/ml proteome was treated with 2 μL of 100× compound stock; endogenous in cells
T5 sequence (Q9H765 1-288): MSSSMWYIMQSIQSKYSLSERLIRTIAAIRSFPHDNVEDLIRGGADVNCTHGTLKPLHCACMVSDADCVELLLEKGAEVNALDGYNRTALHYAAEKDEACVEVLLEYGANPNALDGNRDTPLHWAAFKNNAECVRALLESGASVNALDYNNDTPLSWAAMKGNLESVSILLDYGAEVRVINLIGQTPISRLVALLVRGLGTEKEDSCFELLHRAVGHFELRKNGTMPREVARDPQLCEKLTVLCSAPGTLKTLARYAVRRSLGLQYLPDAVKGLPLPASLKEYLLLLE
Description: as §1

Q86VP6 = target: T6, Q86VP6 (Homo sapiens, UniProt Q86VP6)
T6 construct: 200 μL of lysate containing 5 mg/ml proteome was treated with 2 μL of 100× compound stock; endogenous in cells
T6 sequence (Q86VP6 1-1230): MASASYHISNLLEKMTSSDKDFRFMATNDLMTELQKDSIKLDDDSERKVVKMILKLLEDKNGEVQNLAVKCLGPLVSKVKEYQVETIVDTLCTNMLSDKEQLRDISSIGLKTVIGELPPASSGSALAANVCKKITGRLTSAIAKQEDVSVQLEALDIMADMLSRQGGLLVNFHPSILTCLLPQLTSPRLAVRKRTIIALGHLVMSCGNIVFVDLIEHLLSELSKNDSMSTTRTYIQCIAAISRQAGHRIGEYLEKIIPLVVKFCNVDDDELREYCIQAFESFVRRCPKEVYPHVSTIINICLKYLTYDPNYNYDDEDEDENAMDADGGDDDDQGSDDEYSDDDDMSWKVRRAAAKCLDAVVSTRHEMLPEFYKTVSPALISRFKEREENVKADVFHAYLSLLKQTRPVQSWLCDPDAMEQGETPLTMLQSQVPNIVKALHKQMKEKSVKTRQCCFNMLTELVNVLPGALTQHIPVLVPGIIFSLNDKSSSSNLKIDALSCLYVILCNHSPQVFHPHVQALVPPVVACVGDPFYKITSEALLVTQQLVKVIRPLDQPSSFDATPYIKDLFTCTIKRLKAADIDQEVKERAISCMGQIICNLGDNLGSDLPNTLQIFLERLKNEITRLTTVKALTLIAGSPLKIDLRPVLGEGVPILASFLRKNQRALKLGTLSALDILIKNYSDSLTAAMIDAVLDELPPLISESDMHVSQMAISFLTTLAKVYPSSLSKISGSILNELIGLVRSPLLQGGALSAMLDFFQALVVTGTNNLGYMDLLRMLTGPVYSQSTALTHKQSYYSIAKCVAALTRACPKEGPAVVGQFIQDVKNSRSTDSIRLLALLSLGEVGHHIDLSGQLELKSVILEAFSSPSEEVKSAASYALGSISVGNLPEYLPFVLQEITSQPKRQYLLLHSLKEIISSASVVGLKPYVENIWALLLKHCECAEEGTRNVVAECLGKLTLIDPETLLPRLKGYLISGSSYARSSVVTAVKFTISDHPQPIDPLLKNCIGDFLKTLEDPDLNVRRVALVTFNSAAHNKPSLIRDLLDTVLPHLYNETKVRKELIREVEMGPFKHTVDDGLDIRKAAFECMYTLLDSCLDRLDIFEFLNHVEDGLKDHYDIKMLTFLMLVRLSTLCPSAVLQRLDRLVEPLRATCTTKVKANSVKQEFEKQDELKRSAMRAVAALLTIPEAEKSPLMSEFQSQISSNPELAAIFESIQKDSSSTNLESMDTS
Description: as §1

Q5XKL5 = target: T7, Q5XKL5 (Homo sapiens, UniProt Q5XKL5)
T7 construct: 200 μL of lysate containing 5 mg/ml proteome was treated with 2 μL of 100× compound stock; endogenous in cells
Description: as §1

[1] = 500 uM, read-out: KB02_500 uM_percent_inhibition
[2] = 100 uM, read-out: KB02_100 uM_percent_inhibition
[3] = read-out: KB02_100 uM_percent_inhibition
[4] = 100 uM, read-out: KB05_100 uM_percent_inhibition
[5] = 500 uM, read-out: KB05_500 uM_percent_inhibition
[6] = read-out: KB05_100 uM_percent_inhibition

T7 sequence (Q5XKL5 whole entry): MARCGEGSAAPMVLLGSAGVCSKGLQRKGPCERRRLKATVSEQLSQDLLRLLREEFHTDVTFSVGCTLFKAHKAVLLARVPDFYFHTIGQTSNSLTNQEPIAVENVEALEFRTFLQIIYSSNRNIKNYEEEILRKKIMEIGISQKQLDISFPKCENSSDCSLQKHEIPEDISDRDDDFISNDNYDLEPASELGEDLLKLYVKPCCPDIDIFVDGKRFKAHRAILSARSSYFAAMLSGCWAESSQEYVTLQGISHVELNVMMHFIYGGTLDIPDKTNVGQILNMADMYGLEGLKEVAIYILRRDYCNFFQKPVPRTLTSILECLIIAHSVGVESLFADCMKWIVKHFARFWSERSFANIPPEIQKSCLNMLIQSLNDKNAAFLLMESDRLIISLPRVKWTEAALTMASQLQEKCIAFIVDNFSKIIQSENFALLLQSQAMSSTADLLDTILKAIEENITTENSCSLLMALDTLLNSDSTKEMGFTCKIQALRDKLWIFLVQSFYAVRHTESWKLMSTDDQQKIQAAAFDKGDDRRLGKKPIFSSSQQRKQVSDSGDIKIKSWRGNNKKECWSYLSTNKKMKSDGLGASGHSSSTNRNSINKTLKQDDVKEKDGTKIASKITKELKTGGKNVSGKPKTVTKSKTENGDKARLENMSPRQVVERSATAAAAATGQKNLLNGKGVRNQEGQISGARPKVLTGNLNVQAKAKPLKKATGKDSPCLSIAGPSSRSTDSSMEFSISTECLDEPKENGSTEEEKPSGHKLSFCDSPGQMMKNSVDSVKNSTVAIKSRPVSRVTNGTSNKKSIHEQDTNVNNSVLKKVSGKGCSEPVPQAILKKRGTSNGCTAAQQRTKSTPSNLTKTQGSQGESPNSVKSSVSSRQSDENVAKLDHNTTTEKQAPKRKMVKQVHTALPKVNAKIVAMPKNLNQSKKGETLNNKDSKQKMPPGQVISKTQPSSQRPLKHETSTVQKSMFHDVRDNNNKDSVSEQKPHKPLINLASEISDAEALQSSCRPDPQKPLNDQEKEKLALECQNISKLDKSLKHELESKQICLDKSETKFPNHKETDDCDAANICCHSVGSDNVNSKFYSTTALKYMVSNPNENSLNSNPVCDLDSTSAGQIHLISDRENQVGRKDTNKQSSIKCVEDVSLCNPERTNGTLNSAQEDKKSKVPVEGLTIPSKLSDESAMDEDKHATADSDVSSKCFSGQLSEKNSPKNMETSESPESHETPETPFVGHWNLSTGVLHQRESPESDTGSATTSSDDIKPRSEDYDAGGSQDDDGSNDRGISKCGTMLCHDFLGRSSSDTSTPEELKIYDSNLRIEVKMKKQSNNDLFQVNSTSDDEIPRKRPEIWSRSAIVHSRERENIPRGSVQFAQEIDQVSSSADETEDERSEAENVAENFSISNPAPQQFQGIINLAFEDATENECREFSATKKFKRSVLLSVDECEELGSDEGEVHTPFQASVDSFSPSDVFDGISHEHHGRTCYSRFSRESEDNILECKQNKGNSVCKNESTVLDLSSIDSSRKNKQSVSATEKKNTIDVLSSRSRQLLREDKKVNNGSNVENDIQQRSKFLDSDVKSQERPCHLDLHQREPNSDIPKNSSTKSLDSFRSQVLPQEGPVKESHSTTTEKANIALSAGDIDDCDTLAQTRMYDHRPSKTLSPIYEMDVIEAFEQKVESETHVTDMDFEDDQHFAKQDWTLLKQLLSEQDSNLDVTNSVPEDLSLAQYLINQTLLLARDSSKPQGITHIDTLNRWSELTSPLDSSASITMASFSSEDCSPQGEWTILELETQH
T4 sequence (Q9NYG5 whole entry): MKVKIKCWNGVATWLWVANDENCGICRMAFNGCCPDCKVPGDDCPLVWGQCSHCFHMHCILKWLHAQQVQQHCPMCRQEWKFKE
T3 sequence (Q9UM13 whole entry): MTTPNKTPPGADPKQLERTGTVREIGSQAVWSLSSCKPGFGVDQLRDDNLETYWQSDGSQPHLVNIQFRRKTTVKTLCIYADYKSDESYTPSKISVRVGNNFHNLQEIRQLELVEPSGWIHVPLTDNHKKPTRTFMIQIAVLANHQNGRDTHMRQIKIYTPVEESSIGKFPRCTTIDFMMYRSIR
T2 sequence (Q9UJX5 whole entry): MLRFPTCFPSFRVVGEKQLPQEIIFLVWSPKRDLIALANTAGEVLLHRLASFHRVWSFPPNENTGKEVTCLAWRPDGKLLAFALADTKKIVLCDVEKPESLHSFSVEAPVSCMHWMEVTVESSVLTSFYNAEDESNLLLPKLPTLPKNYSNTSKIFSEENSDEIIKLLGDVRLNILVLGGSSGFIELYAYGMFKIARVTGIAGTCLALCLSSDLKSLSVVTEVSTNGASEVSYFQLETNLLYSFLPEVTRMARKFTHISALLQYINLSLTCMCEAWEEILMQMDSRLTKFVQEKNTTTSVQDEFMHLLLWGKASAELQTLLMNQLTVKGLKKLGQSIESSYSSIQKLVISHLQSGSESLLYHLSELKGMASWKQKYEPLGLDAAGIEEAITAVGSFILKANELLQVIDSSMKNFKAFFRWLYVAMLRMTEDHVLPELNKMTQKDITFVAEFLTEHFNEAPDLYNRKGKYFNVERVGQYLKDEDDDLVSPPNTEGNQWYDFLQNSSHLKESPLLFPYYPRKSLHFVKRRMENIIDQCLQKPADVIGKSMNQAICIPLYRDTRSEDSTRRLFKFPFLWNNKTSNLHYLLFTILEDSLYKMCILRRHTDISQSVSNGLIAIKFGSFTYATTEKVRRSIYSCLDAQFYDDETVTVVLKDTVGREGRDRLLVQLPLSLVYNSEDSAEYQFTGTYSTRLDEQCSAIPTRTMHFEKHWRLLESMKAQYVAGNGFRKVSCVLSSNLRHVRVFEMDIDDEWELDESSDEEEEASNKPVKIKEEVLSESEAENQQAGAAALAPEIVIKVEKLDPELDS

SMILES: COc1ccc2c(c1)CCCN2C(=O)CCl [KB02]
inhibition at 500 µM (Q92624; [1]): 100% | inhibition at 500 µM (Q9UJX5; [1]): 7% | inhibition at 100 µM (Q9UM13; [2]): 1% | inhibition at 500 µM (Q9UM13; [1]): 53% | inhibition at 100 µM (Q9NYG5; [3]): 41% | inhibition at 100 µM (Q9H765; [2]): 19% | inhibition at 500 µM (Q9H765; [1]): 54% | KB02_100 uM_percent_inhibition (Q86VP6; 100 uM): 27% | inhibition at 100 µM (Q86VP6; [3]): 47% | inhibition at 100 µM (Q5XKL5; [2]): 27%

inhibition at 100 µM (Q92624; [4]): 34% | inhibition at 100 µM (Q9UJX5; [4]): 6% | inhibition at 500 µM (Q9UJX5; [5]): 20% | inhibition at 100 µM (Q9UM13; [4]): 18% | inhibition at 500 µM (Q9UM13; [5]): 62% | inhibition at 100 µM (Q9NYG5; [6]): 27% | inhibition at 500 µM (Q9H765; [5]): 37% | KB05_100 uM_percent_inhibition (Q86VP6; 100 uM): 7% | inhibition at 100 µM (Q86VP6; [6]): 4% | KB05_500 uM_percent_inhibition (Q5XKL5; 500 uM): 55% | inhibition at 500 µM (Q5XKL5; [5]): 37%
SMILES: C=CC(=O)N(c1ccccc1)c1ccc(Br)cc1 [KB05]

SMILES: O=C(CCl)Nc1cc(C(F)(F)F)cc(C(F)(F)F)c1 [KBO3]
KB03_100 uM_percent_inhibition (Q92624; 100 uM): 56% | KB03_500 uM_percent_inhibition (Q9UJX5; 500 uM): 29% | KB03_100 uM_percent_inhibition (Q9UM13; 100 uM): 11% | KB03_500 uM_percent_inhibition (Q9UM13; 500 uM): 37% | KB03_100 uM_percent_inhibition (Q9NYG5; 100 uM): 51% | KB03_500 uM_percent_inhibition (Q9H765; 500 uM): 40% | KB03_100 uM_percent_inhibition (Q86VP6; 100 uM): 46% | KB03_500 uM_percent_inhibition (Q5XKL5; 500 uM): 18%
